“And” between values parts separate entries of the source, which are not always exact repeats. Equal values may be shown once.
Legend:
β-hematin formation = experiment: Inhibition of β-hematin formation in vitro; assay type: biochemical; details: n = 3; read-out: IC50 (βHF) inhibition of β-hematin formation (± SEM)
Description: The assay was performed according to previously reported protocols. Hemin chloride (50 μL, 4 mM) in DMSO (5.2 mg mL^−1) was pipetted into 96-well microplates. Different concentrations (0.1–100 mM) of the compounds in DMSO were added in triplicate (50 μL) with a final concentration of 0.025 mM–25 mM/well. Water (50 μL) or DMSO (50 μL) were used as controls. […] Next, the plates were incubated at 37 °C for 48 h and subsequently centrifuged (4000 rpm × 15 min). The supernatant was washed twice with DMSO (200 μL) and resuspended in NaOH (200 μL, 0.2 N). The solubilized products were diluted (1:2) with NaOH (0.1 N), and the plates were read in an ELISA reader at 405 nm (Microplate Reader, BIORAD-550). The results are expressed as % IβHF.

P. berghei ANKA = experiment: Four-day suppressive test in P. berghei-infected mice; assay type: in vivo, Plasmodium berghei (male Balb-C mice)
Description: Male Balb-C mice with a weight of 18–22 g were fed with a commercial diet ad libitum under standard procedures of animal care following the aforementioned method approved by the Ethics Committee of the Institute of Immunology. The animals were infected with a rodent malaria strain of Plasmodium berghei ANKA. A million infected erythrocytes, in phosphate-buffered saline solution (PBS, 10 mM, pH 7.4, 0.1 mL), were inoculated ip to infect the animal. The parasitemia was inspected by continuous microscopic examination of Giemsa-stained smears.
One million P. berghei, injected in the caudal vein i.v, were used to infect the mice (n = 6). After two hours of inoculation, the compounds that were active in vitro were dissolved in DMSO (0.1 M) and subsequently diluted with Saline-Tween 20 solution (2%), and administered ip for 4 days (20 mg kg^−^1). The parasite load was evaluated on the fourth day by examining Giemsa-stained smears. Chloroquine (20 mg kg^−^1) was used as the positive control and saline solution as the negative control. Non-treated mice were used as a baseline control for survival times. The survival days and percentage of parasitemia were used to express the results.

VERO cells = experiment: Cytotoxicity assay in VERO cells (MTT); assay type: cell-based; details: Chlorocebus sabaeus, 72 h
Description: The in vitro evaluations of compounds toxicity by MTT in VERO cells were performed as described in brief: VERO cells culture in DMEM, BSF 10%, were counted in suspension, seeded at 2 × 10^4 cells/well (100 μL) into a 96-well microplate, and incubated at 37 °C in a humidified 5% CO2 incubator for 24 h. After the incubation period, compounds were added in different concentrations: 50, 100, 150, 200, and 500 μM. The plate was incubated for 72 h in the same conditions. Then, 5 mg mL^−^1 of 3-(4,5-dimethylthiazol-2-yl)-2,5-diphenyl tetrazolium bromide (MTT) was added and incubated in darkness for 4 h. After this time, DMSO was added and the plate was read at 540 nm in a spectrophotometer Synergy HT (Biotek). The test was carried out in triplicate including untreated cells and reference drug controls.

[1] = tested on: T. cruzi epimastigotes (Y strain); experiment: Trypanocidal activity, proliferation of T. cruzi epimastigotes (MTT); assay type: cell-based; details: Trypanosoma cruzi, 96 h, read-out: %ITcP: T. cruzi (epimastigotes) % inhibition proliferation
Description: The trypanocidal activity of compounds 7–39 was evaluated on the viability of T. cruzi epimastigotes (Y Strain). Parasites were cultivated in LIT medium supplemented with 10% FBS. The MTT method was used with minor modifications. Next, 2 × 10^6 parasites/mL were seeded in a 96-well plate, adding 50 μM of each derivative dissolved in DMSO (final concentration remained below 1%). The plate was incubated for 96 h at 29 °C. Then, 5 mg mL^−^1 of 3-(4,5-dimethylthiazol-2-yl)-2,5-diphenyl tetrazolium bromide (MTT) was added and incubated in darkness for 4 h. After this time, acidic isopropanol (4N) was added and the plate was read at 540 nm in a spectrophotometer Synergy HT (Biotek). Benznidazole (50 µM) was used as a reference drug.

## COc1ccc(OC)c2c1C/C(=C\c1ccc(SCc3ccccc3)cc1)C2=O [compound 12, (E)-2-[4-(Benzylthio)benzylidene]-2,3-dihydro-4,7-dimethoxyinden-1-one]
β-hematin formation
  IC50: 660 ± 100 nM
P. berghei ANKA; 20 mg kg−1 ip once daily, days 1–4 post-infection, n = 6
  Sd: Survival days (± SEM): 12.3 ± 2.40 days and 12.3 ± 2.4 days
P. berghei ANKA; fourth day post-infection, 20 mg kg−1 ip once daily for 4 days, n = 6
  %P: Percentage of parasitemia (± SEM): 12.5 ± 3.1%
P. berghei ANKA; surviving mice/total, 20 mg kg−1 ip for 4 days
  Survival: 0/6
VERO cells
  IC50: > 150000 nM
[1]
  inhibition at 50 µM: 18.5 ± 2.9%

From article PMC10385825, “Synthesis of Benzocycloalkanone-Based Michael Acceptors and Biological Activities as Antimalarial and Antitrypanosomal Agents” (Molecules, 2023)
